Experimental data published in patent US9645147B2, “Recombinant polypeptide construct comprising Plasmodium falciparum circumsporozoite protein HLA class I restricted T-cell epitopes” (priority 2013, dated 2017).
Entries after “also recorded” stand apart in the source; their conditions may differ. Peptide text beside a SMILES is read from it.

Tested on: PBMC from volunteers immunized with Ad-CA or Ad-C
Test: IFN-γ ELISpot assay with cryopreserved PBMC of immunized volunteers
Format: cell-based, human
Conditions: for 15 mer sfc/m: Table 2, individual 15mer at 10 μg/mL; for Epitope sfc/m: Table 4; for ELISpot response to synthesized epitope (in words): volunteers, positive = p<0.05, at least doubling and at least ten sfc over negative control; for ELISpot response to individual 15mer peptide (in words): volunteers immunized with Ad-CA or Ad-C
Method: Previous studies have confirmed that recall-T cell responses, as assayed by ELISpot, are detected using cryopreserved PBMCs although such responses are generally of a lower magnitude than fresh cells (Sedegah, et al., Malar J., 9: 241 (2011)).
The positive control was commercially obtained Class I Peptide Pool Plus (Anaspec, USA). Negative control was media with all supplements but no antigen-specific stimulant.
Throughout the studies, IFN-γ ELISpot assays were conducted as previously described (Sedegah, et al., Malar J., 9: 241 (2011); Wang, et al., PNAS (USA), 98: 10817-22 (2001)). Cryopreserved PBMC were suspended in 100 μL complete medium and stimulated with CSP peptides in 100 μL of complete medium at a final concentration of 10 μg/mL of each peptide tested (Wang, et al., PNAS (USA), 98: 10817-22 (2001)).
Cultures were incubated for 36 hours at 37° C., 5% CO2. Depending on availability of cells, each PBMC sample was assayed in duplicate, triplicate, or quadruplicate and the number of IFN-γ-secreting spot forming cells (sfc) was counted using an automated ELISpot reader (AID, GmbH, Germany). In duplicate assays, all values were used in analysis. […] The mean number of sfcs obtained in negative control wells was subtracted from the value of each test well from the same sample. Negative counts generated by this background subtraction were converted to zero. The mean number of spots of the test sample was then calculated and expressed as spot forming cells/million (sfc/m). A positive response was defined as a significant difference (p=<0.05) between average of the number of spot forming cells (sfc) in test wells and the average of negative control wells (Student's two tailed t-test), and at least a doubling of sfc in test wells relative to negative control wells, and a difference of at least ten sfc between test and negative control wells (Sedegah, et al., PLoS One, 6: e24586 (2011)).

[1] = volunteer 58 (Ad-C), synthesized 8-10mer epitope
[2] = volunteer 156 (Ad-CA), synthesized 8-10mer epitope

“NELEMNYYGKQENWY [Cp2-C13, 15mer CSP peptide aa 49-63]” was tested, and the 15 mer sfc/m (volunteer 01 (Ad-CA)) was 116 sfc/m and the 15 mer sfc/m (volunteer 12 (Ad-CA)) was 334 sfc/m.
For “QEYQCYGSSSNTRVL [Cp1-C6, 15mer CSP peptide aa 21-35]”, the 15 mer sfc/m (volunteer 58 (Ad-C)) was 83 sfc/m.
In the case of AILSVSSFLF [Epitope E18], the Epitope sfc/m (volunteer 63 (Ad-C), synthesized 8-10mer epitope) is reported as 41 sfc/m and the “ELISpot response to synthesized epitope (in words)” value is reported as “positive”.
With DKHIKEYLNKIQNSL [Cp6-C47] the 15 mer sfc/m (volunteer 61 (Ad-C)) was 48 sfc/m.
For SVFNVVNSSI [Epitope E13], the Epitope sfc/m (volunteer 37 (Ad-C), synthesized epitope, single value or first of two assays) was 28 sfc/m, the Epitope sfc/m [1] was 80 sfc/m and the “ELISpot response to synthesized epitope (in words)” value was “positive; also recorded: demonstrated activity”.
In the case of “VFNVVNSSIGLIMVL [Cp9-C63, 15mer CSP peptide aa 377-391]”, the 15 mer sfc/m (volunteer 08 (Ad-CA)) is reported as 109 sfc/m, the 15 mer sfc/m (volunteer 61 (Ad-C)) is reported as 80 sfc/m and the “ELISpot response to individual 15mer peptide (in words)” value is reported as “positive”.
With “SSIGLIMVLSFLFLN [Cp9-C65, 15mer CSP peptide aa 383-397]” the 15 mer sfc/m (volunteer 01 (Ad-CA)) was 46 sfc/m, the 15 mer sfc/m (volunteer 02 (Ad-CA)) was 44 sfc/m and the 15 mer sfc/m (volunteer 08 (Ad-CA)) was 62 sfc/m.
“EALFQEYQCYGSSSN [Cp1-05, 15mer CSP peptide aa 17-31]” showed a 15 mer sfc/m (volunteer 58 (Ad-C)) of 105 sfc/m.
Compound “SVSSFLFVEALFQEY [Cp1-C3, 15mer CSP peptide aa 9-23]” has a 15 mer sfc/m (volunteer 05 (Ad-CA)) of 65 sfc/m, a 15 mer sfc/m (volunteer 58 (Ad-C)) of 29 sfc/m and a 15 mer sfc/m (volunteer 69 (Ad-C)) of 385 sfc/m. The “ELISpot response to individual 15mer peptide (in words)” value was “positive”.
With `CC(C)C[C@H](NC(=O)[C@H](C)NC(=O)[C@H](CCC(=O)O)NC(=O)[C@@H](NC(=O)[C@H](Cc1ccccc1)NC(=O)[C@@H](N)CC(C)C)C(C)C)C(=O)N[C@@H](Cc1ccccc1)C(=O)N[C@@H](CCC(N)=O)C(=O)N[C@@H](CCC(=O)O)C(=O)N[C@@H](Cc1ccc(O)cc1)C(=O)O` [Epitope E3] (H-LFVEALFQEY-OH; N-terminus and C-terminus assumed) the Epitope sfc/m (volunteer 69 (Ad-C), synthesized 8-10mer epitope) was 259 sfc/m, the Epitope sfc/m (volunteer 127 (Ad-CA), synthesized 8-10mer epitope) was 99 sfc/m and the “ELISpot response to synthesized epitope (in words)” value was “active; also recorded: positive; also recorded: demonstrated activity”.
For FLFVEALFQE [Epitope E1], the Epitope sfc/m [1] was 49 sfc/m, the Epitope sfc/m [2] was 105 sfc/m and the “ELISpot response to synthesized epitope (in words)” value was “active; also recorded: positive; also recorded: demonstrated activity”.
“VNSSIGLIMVLSFLF [Cp9-C64, 15mer CSP peptide aa 381-395]” was tested, and the 15 mer sfc/m (volunteer 08 (Ad-CA)) was 91 sfc/m.
In the case of `CC[C@H](C)[C@H](NC(=O)[C@H](C)N)C(=O)N[C@@H](CC(C)C)C(=O)N[C@@H](CO)C(=O)N[C@H](C(=O)N[C@@H](CO)C(=O)N[C@@H](CO)C(=O)N[C@@H](Cc1ccccc1)C(=O)N[C@@H](CC(C)C)C(=O)O)C(C)C` [Epitope E18a], the “ELISpot response to synthesized epitope (in words)” value is reported as “demonstrated activity”.
`CC[C@H](C)[C@H](NC(=O)[C@@H](N)CC(C)C)C(=O)N[C@@H](CCSC)C(=O)N[C@H](C(=O)N[C@@H](CC(C)C)C(=O)N[C@@H](CO)C(=O)N[C@@H](Cc1ccccc1)C(=O)N[C@@H](CC(C)C)C(=O)N[C@@H](Cc1ccccc1)C(=O)N[C@@H](CC(C)C)C(=O)O)C(C)C` [Epitope E17] was tested, and the Epitope sfc/m [2] was 156 sfc/m and the “ELISpot response to synthesized epitope (in words)” value was “positive”.
For “IMVLSFLFL (listed as Plasmodium falciparum) [Epitope E21, CSP aa 388-396]”, the Epitope sfc/m (volunteer 125 (Ad-CA), synthesized 8-10mer epitope) was 29 sfc/m and the “ELISpot response to synthesized epitope (in words)” value was “low to modest response; also recorded: demonstrated activity”.
“FLFVEALFQEYQCYG [Cp1-C4, 15mer CSP peptide aa 13-27]” was tested, and the 15 mer sfc/m (volunteer 01 (Ad-CA)) was 48 sfc/m, the 15 mer sfc/m (volunteer 05 (Ad-CA)) was 44 sfc/m and the 15 mer sfc/m (volunteer 12 (Ad-CA)) was 87 sfc/m. The 15 mer sfc/m (volunteer 69 (Ad-C)) was 368 sfc/m and the “ELISpot response to individual 15mer peptide (in words)” value was “positive”.
Compound “ELNYDNAGTNLYNEL [Cp2-C10, 15mer CSP peptide aa 37-51]” has a 15 mer sfc/m (volunteer 41 (Ad-C)) of 35 sfc/m.
In the case of KEYLNKIQNSLSTEW [Cp6-C48], the 15 mer sfc/m (volunteer 05 (Ad-CA)) is reported as 106 sfc/m, the 15 mer sfc/m (volunteer 41 (Ad-C)) is reported as 103 sfc/m and the 15 mer sfc/m (volunteer 58 (Ad-C)) is reported as 45 sfc/m. For the same compound, the “ELISpot response to individual 15mer peptide (in words)” value was “positive”.
With “KCSSVFNVVNSSIGL [Cp9-C62, 15mer CSP peptide aa 373-387]” the 15 mer sfc/m (volunteer 01 (Ad-CA)) was 116 sfc/m.
“EKKICKMEKCSSVFN [Cp9-C60, 15mer CSP peptide aa 365-379]” was tested, and the 15 mer sfc/m (volunteer 61 (Ad-C)) was 39 sfc/m.
“TNLYNELEMNYYGKQ [Cp2-C12, 15mer CSP peptide aa 45-59]” showed a 15 mer sfc/m (volunteer 01 (Ad-CA)) of 119 sfc/m and a 15 mer sfc/m (volunteer 12 (Ad-CA)) of 411 sfc/m.
